Data published in patent publication US9138436B2, “Inhibitors of Bruton's tyrosine kinase” (PHARMACYCLICS LLC, priority 2011, dated 2015).

Molecular target: Btk (Homo sapiens, UniProt Q06187)
Assay: Btk in vitro inhibitory activity, acellular kinase assay (TR-FRET)
Format: biochemical
Method: Btk kinase activity is determined using a time-resolved fluorescence resonance energy transfer (TR-FRET) methodology. Measurements are performed in a reaction volume of 50 μL using 96-well assay plates. Kinase enzyme, inhibitor, ATP (at the Km for the kinase), and 1 μM peptide substrate (Biotin-AVLESEEELYSSARQ-NH2) are incubated in a reaction buffer composed of 20 mM Tris, 50 mM NaCl, MgCl2 (5-25 mM depending on the kinase), MnCl2 (0-10 mM), 1 mM DTT, 0.1 mM EDTA, 0.01% bovine serum albumin, 0.005% Tween-20, and 10% DMSO at pH 7.4 for one hour. The reaction is quenched by the addition of 1.2 equivalents of EDTA (relative to divalent cation) in 25 μL of 1× Lance buffer (Perkin-Elmer). Streptavidin-APC (Perkin-Elmer) and Eu-labeled p-Tyr100 antibody (Perkin-Elmer) in 1× Lance buffer are added in a 25 μL volume to give final concentrations of 100 nM and 2.5 nM, respectively, and the mixture is allowed to incubate for one hour. The TR-FRET signal is measured on a multimode plate reader with an excitation wavelength (λEx) of 330 nm and detection wavelengths (λEm) of 615 and 665 nm. Activity is determined by the ratio of the fluorescence at 665 nm to that at 615 nm. For each compound, enzyme activity is measured at various concentrations of compound. Negative control reactions are performed in the absence of inhibitor in replicates of six, and two no-enzyme controls were used to determine baseline fluorescence levels. Inhibition constants, Ki(app), are obtained using the program BatchKi (Kuzmic et al. (2000), Anal. Biochem. 286:45-50). IC50s are obtained according to the equation: IC50={Ki(app)/(1+[ATP]/Km^ATP)}+[E]total/2;
For all kinases, [ATP]=Km^ATP, [Btk]total=0.5 nM and [Lck]total=6 nM.

Chain of Btk (Q06187 whole entry): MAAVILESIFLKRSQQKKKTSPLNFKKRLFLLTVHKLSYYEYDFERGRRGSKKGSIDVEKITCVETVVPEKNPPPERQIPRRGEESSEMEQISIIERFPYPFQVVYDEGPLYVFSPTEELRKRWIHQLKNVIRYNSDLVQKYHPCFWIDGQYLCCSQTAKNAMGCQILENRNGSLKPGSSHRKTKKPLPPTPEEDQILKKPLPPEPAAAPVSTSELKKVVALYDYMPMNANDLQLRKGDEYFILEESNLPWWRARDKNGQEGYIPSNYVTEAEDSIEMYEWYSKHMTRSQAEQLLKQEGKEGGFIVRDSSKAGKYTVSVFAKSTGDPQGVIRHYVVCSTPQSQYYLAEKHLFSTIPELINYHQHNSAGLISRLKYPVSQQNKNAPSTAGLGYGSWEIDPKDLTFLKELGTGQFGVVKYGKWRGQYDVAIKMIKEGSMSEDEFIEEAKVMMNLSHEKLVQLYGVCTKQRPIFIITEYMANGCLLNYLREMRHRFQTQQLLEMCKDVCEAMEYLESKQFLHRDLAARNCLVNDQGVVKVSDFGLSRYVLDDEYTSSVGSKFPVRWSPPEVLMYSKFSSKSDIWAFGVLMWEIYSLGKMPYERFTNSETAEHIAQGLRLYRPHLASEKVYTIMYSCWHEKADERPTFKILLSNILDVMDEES

IC50, < 100 nM:
CN(C(=O)/C=C/CN(C)C1CCC1)c1ccc(-n2nc(-c3ccc(Oc4ccccc4)cc3)c3c(N)ncnc32)cc1 [Example 7c, (E)-N-(4-(4-amino-3-(4-phenoxyphenyl)-1H-pyrazolo[3,4-d]pyrimidin-1-yl)phenyl)-4-(cyclobutyl(methyl)amino)-N-methylbut-2-enamide]
CN(C/C=C/C(=O)N1CCC[C@@H](n2nc(-c3ccc(Oc4ccccc4)cc3)c3c(N)ncnc32)C1)C1COC1 [Example 2m, (R,E)-1-(3-(4-amino-3-(4-phenoxyphenyl)-1H-pyrazolo[3,4-d]pyrimidin-1-yl)piperidin-1-yl)-4-(methyl(oxetan-3-yl)amino)but-2-en-1-one]
CCN(C/C=C/C(=O)N1CCC[C@@H](n2nc(-c3ccc(Oc4ccccc4)cc3)c3c(N)ncnc32)C1)C1CC1 [Example 5a, (R,E)-1-(3-(4-amino-3-(4-phenoxyphenyl)-1H-pyrazolo[3,4-d]pyrimidin-1-yl)piperidin-1-yl)-4-(cyclopropyl(ethyl)amino)but-2-en-1-one]
Nc1ncnc2c1c(-c1ccc(Oc3ccccc3)cc1)nn2[C@@H]1CCCN(C(=O)/C=C/CNC2CCC2)C1 [Example 2am, (R,E)-1-(3-(4-amino-3-(4-phenoxyphenyl)-1H-pyrazolo[3,4-d]pyrimidin-1-yl)piperidin-1-yl)-4-(cyclobutylamino)but-2-en-1-one]
CN(C/C=C/C(=O)N1CCC(n2nc(-c3ccc(Oc4ccccc4)cc3)c3c(N)ncnc32)CC1)C1CC1 [Example 5b, (E)-1-(4-(4-amino-3-(4-phenoxyphenyl)-1H-pyrazolo[3,4-d]pyrimidin-1-yl)piperidin-1-yl)-4-(cyclopropyl(methyl)amino)but-2-en-1-one]
CN(C/C=C/C(=O)N1CC[C@@H](n2cc(-c3ccc(Oc4ccccc4)cc3)c3c(N)ncnc32)C1)C1CC1 [Example 6b, (R,E)-1-(3-(4-amino-5-(4-phenoxyphenyl)-7H-pyrrolo[2,3-d]pyrimidin-7-yl)pyrrolidin-1-yl)-4-(cyclopropyl(methyl)amino)but-2-en-1-one]
CN(C(=O)/C=C/CN(C)C1CC1)c1cccc(-n2nc(-c3ccc(Oc4ccccc4)cc3)c3c(N)ncnc32)c1 [Example 7d, (E)-N-(3-(4-amino-3-(4-phenoxyphenyl)-1H-pyrazolo[3,4-d]pyrimidin-1-yl)phenyl)-4-(cyclopropyl(methyl)amino)-N-methylbut-2-enamide]
CN1CCC(N(C)C/C=C/C(=O)N2CCC[C@@H](n3nc(-c4ccc(Oc5ccccc5)cc4)c4c(N)ncnc43)C2)CC1 [Example 2an, (R,E)-1-(3-(4-amino-3-(4-phenoxyphenyl)-1H-pyrazolo[3,4-d]pyrimidin-1-yl)piperidin-1-yl)-4-(methyl(1-methylpiperidin-4-yl)amino)but-2-en-1-one]
CN(C/C=C/C(=O)N1CCC[C@@H](n2nc(-c3ccc(Oc4ccccc4)cc3)c3c(N)ncnc32)C1)C1CCOCC1 [Example 1q, (R,E)-1-(3-(4-amino-3-(4-phenoxyphenyl)-1H-pyrazolo[3,4-d]pyrimidin-1-yl)piperidin-1-yl)-4-(methyl(tetrahydro-2H-pyran-4-yl)amino)but-2-en-1-one]
CN(C/C=C/C(=O)N1CC[C@@H](n2nc(-c3ccc(Oc4ccccc4)cc3)c3c(N)ncnc32)C1)C1COC1 [Example 2f, (R,E)-1-(3-(4-amino-3-(4-phenoxyphenyl)-1H-pyrazolo[3,4-d]pyrimidin-1-yl)pyrrolidin-1-yl)-4-(methyl(oxetan-3-yl)amino)but-2-en-1-one]
Nc1ncnc2c1c(-c1ccc(Oc3ccccc3)cc1)nn2[C@@H]1CCN(C(=O)/C=C/CNC2CC2)C1 [Example 3a, (R,E)-1-(3-(4-amino-3-(4-phenoxyphenyl)-1H-pyrazolo[3,4-d]pyrimidin-1-yl)pyrrolidin-1-yl)-4-(cyclopropylamino)but-2-en-1-one]
Nc1ncnc2c1c(-c1ccc(Oc3ccccc3)cc1)nn2[C@@H]1CCCN(C(=O)/C=C/CN[C@@H]2CCOC2)C1 [Example 2i, (E)-1-((R)-3-(4-amino-3-(4-phenoxyphenyl)-1H-pyrazolo[3,4-d]pyrimidin-1-yl)piperidin-1-yl)-4-((R)-tetrahydrofuran-3-ylamino)but-2-en-1-one]
CN(C/C=C/C(=O)N1CCC[C@@H](n2nc(-c3ccc(Oc4ccccc4)cc3)c3c(N)ncnc32)C1)C1CCCC1 [Example 2ai, (R,E)-1-(3-(4-amino-3-(4-phenoxyphenyl)-1H-pyrazolo[3,4-d]pyrimidin-1-yl)piperidin-1-yl)-4-(cyclopentyl(methyl)amino)but-2-en-1-one]
COCCN(C/C=C/C(=O)N1CCC[C@@H](n2nc(-c3ccc(Oc4ccccc4)cc3)c3c(N)ncnc32)C1)C1CC1 [Example 2s, (R,E)-1-(3-(4-amino-3-(4-phenoxyphenyl)-1H-pyrazolo[3,4-d]pyrimidin-1-yl)piperidin-1-yl)-4-(cyclopropyl(2-methoxyethyl)amino)but-2-en-1-one]
CN(C/C=C/C(=O)N1CC(n2nc(-c3ccc(Oc4ccccc4)cc3)c3c(N)ncnc32)C1)C1CC1 [Example 5c, (E)-1-(3-(4-amino-3-(4-phenoxyphenyl)-1H-pyrazolo[3,4-d]pyrimidin-1-yl)azetidin-1-yl)-4-(cyclopropyl(methyl)amino)but-2-en-1-one]
CN(C/C=C/C(=O)N1CCC[C@@H](n2nc(-c3ccc(Oc4ccccc4)cc3)c3c(N)ncnc32)C1)C1CC1 [Example 2ae, (R,E)-1-(3-(4-amino-3-(4-phenoxyphenyl)-1H-pyrazolo[3,4-d]pyrimidin-1-yl)piperidin-1-yl)-4-(cyclopropyl(methyl)amino)but-2-en-1-one]
CN(C(=O)/C=C/CN(C)C1CC1)c1cccc(-n2cc(-c3ccc(Oc4ccccc4)cc3)c3c(N)ncnc32)c1 [Example 8a]
CN(C/C=C/C(=O)N1CC[C@@H](n2nc(-c3ccc(Oc4cccc(F)c4)cc3)c3c(N)ncnc32)C1)C1CCC1 [Example 4b, (R,E)-1-(3-(4-amino-3-(4-(3-fluorophenoxy)phenyl)-1H-pyrazolo[3,4-d]pyrimidin-1-yl)pyrrolidin-1-yl)-4-(cyclobutyl(methyl)amino)but-2-en-1-one]
Nc1ncnc2c1c(-c1ccc(Oc3ccccc3)cc1)nn2[C@@H]1CCCN(C(=O)/C=C/CNC2CC2)C1 [Example 2af, (R,E)-1-(3-(4-amino-3-(4-phenoxyphenyl)-1H-pyrazolo[3,4-d]pyrimidin-1-yl)piperidin-1-yl)-4-(cyclopropylamino)but-2-en-1-one]
Nc1ncnc2c1c(-c1ccc(Oc3ccccc3)cc1)nn2[C@@H]1CCN(C(=O)/C=C/CNc2ccccn2)C1 [Example 1s, (R,E)-1-(3-(4-amino-3-(4-phenoxyphenyl)-1H-pyrazolo[3,4-d]pyrimidin-1-yl)pyrrolidin-1-yl)-4-(pyridin-2-ylamino)but-2-en-1-one]
Nc1ncnc2c1c(-c1ccc(Oc3ccccc3)cc1)nn2[C@@H]1CCCN(C(=O)/C=C/CNC2CCOCC2)C1 [Example 1f, (R,E)-1-(3-(4-amino-3-(4-phenoxyphenyl)-1H-pyrazolo[3,4-d]pyrimidin-1-yl)piperidin-1-yl)-4-(tetrahydro-2H-pyran-4-ylamino)but-2-en-1-one]
CN(C(=O)/C=C/CN(C)C1CCC1)c1cccc(-n2nc(-c3ccc(Oc4ccccc4)cc3)c3c(N)ncnc32)c1 [Example 7e, (E)-N-(3-(4-amino-3-(4-phenoxyphenyl)-1H-pyrazolo[3,4-d]pyrimidin-1-yl)phenyl)-4-(cyclobutyl(methyl)amino)-N-methylbut-2-enamide]
CCN(C/C=C/C(=O)N1CC[C@@H](n2nc(-c3ccc(Oc4ccccc4)cc3)c3c(N)ncnc32)C1)C1CC1 [Example 2v, (R,E)-1-(3-(4-amino-3-(4-phenoxyphenyl)-1H-pyrazolo[3,4-d]pyrimidin-1-yl)pyrrolidin-1-yl)-4-(cyclopropyl(ethyl)amino)but-2-en-1-one]
CN(C(=O)/C=C/CN(C)C1CC1)c1ccc(-n2nc(-c3ccc(Oc4ccccc4)cc3)c3c(N)ncnc32)cc1 [Example 7b, (E)-N-(4-(4-amino-3-(4-phenoxyphenyl)-1H-pyrazolo[3,4-d]pyrimidin-1-yl)phenyl)-4-(cyclopropyl(methyl)amino)-N-methylbut-2-enamide]
Nc1ncnc2c1c(-c1ccc(Oc3ccccc3)cc1)nn2[C@@H]1CCCN(C(=O)/C=C/CN[C@H]2CCOC2)C1 [Example 2k, (E)-1-((R)-3-(4-amino-3-(4-phenoxyphenyl)-1H-pyrazolo[3,4-d]pyrimidin-1-yl)piperidin-1-yl)-4-((S)-tetrahydrofuran-3-ylamino)but-2-en-1-one]
